Source: patent US20230085307A1, “PYRIDAZINONE COMPOUND AND HERBICIDE” (NISSAN CHEMICAL CORPORATION, priority 2019, published 2023)

Key:
persian speedwell = test: Test Example 5: herbicidal effect by foliage application, plastic box (Table 20, symbol R); assay type: in vivo, Persian speedwell (Veronica persica); conditions: foliage application, AAH 320 g/ha, three weeks after application
Outline: (§1)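 Sow seeds spot-wise in sterilized diluvial soil; cover with ~1.5 cm soil. Grow 14 days in greenhouse, 25° C. to 30° C. Spray foliage with emulsion diluted to predetermined amount. Rate effect after 3 weeks.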

Japanese bulrush [1] = test: Test Example 1: herbicidal activity, application before weed generation under submerged conditions (Table 16, symbol B); assay type: in vivo, Japanese bulrush (Schoenoplectus juncoides); conditions: 320 g/ha applied herbicide
Outline: (§2)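 Submerged Wagner pots (alluvial soil, 4 cm water) sown with weed seeds and planted with 2.5-leaf rice seedlings; emulsifiable concentrate diluted in water applied to water surface on sowing day. Held in greenhouse at 25-30 °C; injury scored 0-5 by herbicidal rate after three weeks.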

velvetleaf [2] = test: Test Example 4: herbicidal effect by soil treatment (Table 19, symbol M); assay type: in vivo, velvetleaf (Abutilon theophrasti); conditions: AAH 320 g/ha
Outline: (§3)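 Soil-surface application: an emulsion agent diluted with water to the predetermined dose is sprayed uniformly over seeds lying under roughly 1.5 cm of sterilized diluvial soil. Boxes stay in a greenhouse at 25° C. to 30° C. Three weeks later, each species is graded on previously defined criteria.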

barnyard grass [3] = test: Test Example 4: herbicidal effect by soil treatment (Table 19, symbol H); assay type: in vivo, barnyard grass (Echinochloa crus-galli); conditions: AAH 320 g/ha
Outline: as §3

windgrass [4] = test: Test Example 4: herbicidal effect by soil treatment (Table 19, symbol L); assay type: in vivo, windgrass (Apera spica-venti); conditions: AAH 320 g/ha
Outline: as §3

Italian ryegrass = test: Test Example 5: herbicidal effect by foliage application, plastic box (Table 20, symbol K); assay type: in vivo, Italian ryegrass (Lolium multiflorum); conditions: foliage application, AAH 320 g/ha, three weeks after application
Outline: as §1

lambsquarters [5] = test: Test Example 4: herbicidal effect by soil treatment (Table 19, symbol O); assay type: in vivo, lambsquarters (Chenopodium album); conditions: AAH 320 g/ha
Outline: as §3

barnyard grass [6] = test: Test Example 3: herbicidal effect by foliage application, Wagner pot (Table 18, symbol H); assay type: in vivo, barnyard grass (Echinochloa crus-galli); conditions: 320 g/ha
Outline: (§4)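 Plants were sown in alluvial soil held under 0.1–0.5 cm standing water and grown 14 days in a greenhouse at 25–30 °C. An emulsifiable formulation, water-diluted to the set dose, was then sprayed onto the foliage, and effects were scored three weeks later using previously defined criteria.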

windgrass [7] = test: Test Example 5: herbicidal effect by foliage application, plastic box (Table 20, symbol L); assay type: in vivo, windgrass (Apera spica-venti); conditions: foliage application, AAH 320 g/ha, three weeks after application
Outline: as §1

southern crabgrass [8] = test: Test Example 5: herbicidal effect by foliage application, plastic box (Table 20, symbol F); assay type: in vivo, southern crabgrass (Digitaria ciliaris); conditions: foliage application, AAH 320 g/ha, three weeks after application
Outline: as §1

wild oat = test: Test Example 5: herbicidal effect by foliage application, plastic box (Table 20, symbol I); assay type: in vivo, wild oat (Avena fatua); conditions: foliage application, AAH 320 g/ha, three weeks after application
Outline: as §1

velvetleaf [9] = test: Test Example 5: herbicidal effect by foliage application, plastic box (Table 20, symbol M); assay type: in vivo, velvetleaf (Abutilon theophrasti); conditions: foliage application, AAH 320 g/ha, three weeks after application
Outline: as §1

Japanese bulrush [10] = test: Test Example 2: herbicidal activity, application during weed generation under submerged conditions (Table 17, symbol B); assay type: in vivo, Japanese bulrush (Schoenoplectus juncoides); conditions: AAH 320 g/ha; application during weed generation, submerged conditions
Outline: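 Alluvial soil in Wagner pots was flooded to 4 cm depth and sown with the three weeds together; pots were kept in a greenhouse at 25° C. to 30° C. At the one to two leaf stage, an emulsion formulation diluted in water to a set rate went onto the water surface; scored three weeks later.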

late watergrass = test: Test Example 1: herbicidal activity, application before weed generation under submerged conditions (Table 16, symbol A); assay type: in vivo, late watergrass (Echinochloa oryzicola); conditions: 320 g/ha applied herbicide
Outline: as §2

southern crabgrass [11] = test: Test Example 4: herbicidal effect by soil treatment (Table 19, symbol F); assay type: in vivo, southern crabgrass (Digitaria ciliaris); conditions: AAH 320 g/ha
Outline: as §3

Chinese sprangletop = test: Test Example 3: herbicidal effect by foliage application, Wagner pot (Table 18, symbol D); assay type: in vivo, chinese sprangletop (Leptochloa chinensis); conditions: 320 g/ha
Outline: as §4

lambsquarters [12] = test: Test Example 5: herbicidal effect by foliage application, plastic box (Table 20, symbol O); assay type: in vivo, lambsquarters (Chenopodium album); conditions: foliage application, AAH 320 g/ha, three weeks after application
Outline: as §1

Structure (SMILES) | R: persian speedwell, herbicidal effect (persian speedwell) | Herbicidal effect on B: Japanese bulrush (grade 0-5) (Japanese bulrush [1]) | M: velvetleaf, herbicidal effect rating (velvetleaf [2]) | H: barnyard grass, herbicidal effect rating (barnyard grass [3]) | L: windgrass, herbicidal effect rating (windgrass [4]) | K: Italian ryegrass, herbicidal effect (Italian ryegrass) | O: lambsquarters, herbicidal effect rating (lambsquarters [5]) | herbicidal effect on H (barnyard grass), rating 0-5 (barnyard grass [6]) | L: windgrass, herbicidal effect (windgrass [7]) | F: southern crabgrass, herbicidal effect (southern crabgrass [8]) | I: wild oat, herbicidal effect (wild oat) | M: velvetleaf, herbicidal effect (velvetleaf [9]) | herbicidal effect rating, B: Japanese bulrush (Japanese bulrush [10]) | Herbicidal effect on A: late watergrass (grade 0-5) (late watergrass) | F: southern crabgrass, herbicidal effect rating (southern crabgrass [11]) | herbicidal effect on D (Chinese sprangletop), rating 0-5 (Chinese sprangletop) | O: lambsquarters, herbicidal effect (lambsquarters [12])
Cc1nn(C)c(=O)c(-c2c(-c3ccc([N+](=O)[O-])cc3)sc3ccccc23)c1O [1-151] | 5 (Herbicidal rate of 90% or more (almost completely withered)) | 3 (Herbicidal rate of 40% or more and less than 70%) | 0 (Herbicidal rate of 5% or less (almost no effect)) | 0 (Herbicidal rate of 5% or less (almost no effect)) | 0 (Herbicidal rate of 5% or less (almost no effect)) | 5 (Herbicidal rate of 90% or more (almost completely withered)) | 2 (Herbicidal rate of 20% or more and less than 40%) | 4 (Herbicidal rate of 70% or more and less than 90%) | 0 (Herbicidal rate of 5% or less (almost no effect)) | 4 (Herbicidal rate of 70% or more and less than 90%) | 0 (Herbicidal rate of 5% or less (almost no effect)) | 5 (Herbicidal rate of 90% or more (almost completely withered)) | 2 (Herbicidal rate of 20% or more and less than 40%) | 3 (Herbicidal rate of 40% or more and less than 70%) | 0 (Herbicidal rate of 5% or less (almost no effect)) | 3 (Herbicidal rate of 40% or more and less than 70%) | 5 (Herbicidal rate of 90% or more (almost completely withered))
CCCC(=O)Oc1c(C)nn(C)c(=O)c1-c1c(-c2ccc([N+](=O)[O-])cc2)sc2ccccc12 [1-152] | 5 (Herbicidal rate of 90% or more (almost completely withered)) | 3 (Herbicidal rate of 40% or more and less than 70%) | 0 (Herbicidal rate of 5% or less (almost no effect)) | 3 (Herbicidal rate of 40% or more and less than 70%) | 0 (Herbicidal rate of 5% or less (almost no effect)) | 4 (Herbicidal rate of 70% or more and less than 90%) | 0 (Herbicidal rate of 5% or less (almost no effect)) | 5 (Herbicidal rate of 90% or more (almost completely withered)) | 0 (Herbicidal rate of 5% or less (almost no effect)) | 4 (Herbicidal rate of 70% or more and less than 90%) | 0 (Herbicidal rate of 5% or less (almost no effect)) | 5 (Herbicidal rate of 90% or more (almost completely withered)) | 3 (Herbicidal rate of 40% or more and less than 70%) | 4 (Herbicidal rate of 70% or more and less than 90%) | 1 (Herbicidal rate of 5% or more and less than 20%) | 5 (Herbicidal rate of 90% or more (almost completely withered)) | 4 (Herbicidal rate of 70% or more and less than 90%)
